This note sets out measurements from patent publication US20230348483A1, “PREPARATION METHOD FOR (S)-2-AMINO-3-(4-(2,3-DIMETHYLPYRIDIN-4-YL)PHENYL)METHYL PROPIONATE DIACID SALT” (Hangzhou Zhongmei Huadong Pharmaceutical Co., Ltd., priority 2020, published 2023).

Data set [1] is described as follows: Stability test of salt forms at temperature 40° C. and humidity 75% (HPLC chemical purity, physical properties). The data set is classed as physicochemical. The conditions noted are these: for Appearance / Hygroscopicity / Purity (%): 40° C./75% placement for 1 day; for Purity (%) / Initial purity: chemical purity by HPLC; for Initial purity: before placement. On the procedure:
Compare the properties of the desired salts of compound V, includes but not limits to as herein oxalate or phosphate, to hydrochloride. Conduct the stability test under the condition of temperature 40° C. and humidity 75%, measure the chemical purity by HPLC and observe the physical properties.

A short description of data set [2]: Hygroscopicity and deterioration of compound IV as found by the researchers. The format is physicochemical. The conditions noted are these: solid, storage and transport.

On to `COC(=O)[C@@H](N)Cc1ccc(-c2ccnc(C)c2C)cc1.O=C(O)C(=O)O.O=C(O)C(=O)O` [Phosphate, methyl (S)-2-amino-3-[4-(2,3-dimethylpyridin-4-yl)-phenyl]-propionate diacid salt], for which, in data set [1], the Appearance result was “White to light”, the Hygroscopicity entry was “Slight”, the “Purity (%)” value is 96.1% and the Initial purity is 98.5.

For the compound `COC(=O)[C@@H](N)Cc1ccc(-c2ccnc(C)c2C)cc1.Cl.Cl` [Hydrochloride, methyl (S)-2-amino-3-[4-(2,3-dimethylpyridin-4-yl)-phenyl]-propionate dihydrochloride], in data set [1], the Appearance result is listed as “Yellow solid”, the Hygroscopicity result was “Strong”, the “Purity (%)” value is recorded as 87.5% and the Initial purity is recorded as 95.1. In data set [2], the “Deterioration (storage stability)” value is on record as “easily to be deteriorated” and the Hygroscopicity result is listed as “highly hygroscopic”.

In the case of `COC(=O)[C@@H](N)Cc1ccc(-c2ccnc(C)c2C)cc1.O=C(O)C(=O)O.O=C(O)C(=O)O` [Oxalate, methyl (S)-2-amino-3-[4-(2,3-dimethylpyridin-4-yl)-phenyl]-propionate diacid salt], in data set [1], the Appearance entry is recorded as “White powder”, the Hygroscopicity result is “Almost none”, the “Purity (%)” value is 99.0% and the Initial purity was found to be 99.1.
